Eight compounds from patent US6911446B2, “Methods of modulating serine/threonine protein kinase function with quinazoline-based compounds” (Sugen, Inc., priority 1997, dated 2005) can be followed below.

A value given as a limit tells only on which side of the number the result lay.

The target of one experiment is T1, EGF Receptor (Homo sapiens, UniProt P00533).
T1 construct: expressed in transfected cells; host or cells: NIH3T3 (EGFR-NIH3T3)
As to the kind of experiment: EGF Receptor kinase activity in whole cells (EGFR-NIH3T3 assay, EGFR ELISA). Conditions: Table 5, EGFR ELISA assay in whole cells (EGFR-NIH3T3); read-out: IC50 A549. Type of experiment: cell-based. How it is done:
EGF Receptor kinase activity (EGFR-NIH3T3 assay) in whole cells was measured as described in detail in PCT Publication WO9640116, filed Jun. 5, 1996, by Tang et al., and entitled “Indolinone Compounds for the Treatment of Disease,” incorporated herein by reference in its entirety, including any drawings.

The target in another experiment is T2, RAF-1 (Homo sapiens, UniProt P04049).
T2 construct: made in house; host or cells: Sf9 (Spodoptera frugiperda) cells co-infected with RAS and RAF recombinant baculoviruses
T2 sequence (P04049 whole entry): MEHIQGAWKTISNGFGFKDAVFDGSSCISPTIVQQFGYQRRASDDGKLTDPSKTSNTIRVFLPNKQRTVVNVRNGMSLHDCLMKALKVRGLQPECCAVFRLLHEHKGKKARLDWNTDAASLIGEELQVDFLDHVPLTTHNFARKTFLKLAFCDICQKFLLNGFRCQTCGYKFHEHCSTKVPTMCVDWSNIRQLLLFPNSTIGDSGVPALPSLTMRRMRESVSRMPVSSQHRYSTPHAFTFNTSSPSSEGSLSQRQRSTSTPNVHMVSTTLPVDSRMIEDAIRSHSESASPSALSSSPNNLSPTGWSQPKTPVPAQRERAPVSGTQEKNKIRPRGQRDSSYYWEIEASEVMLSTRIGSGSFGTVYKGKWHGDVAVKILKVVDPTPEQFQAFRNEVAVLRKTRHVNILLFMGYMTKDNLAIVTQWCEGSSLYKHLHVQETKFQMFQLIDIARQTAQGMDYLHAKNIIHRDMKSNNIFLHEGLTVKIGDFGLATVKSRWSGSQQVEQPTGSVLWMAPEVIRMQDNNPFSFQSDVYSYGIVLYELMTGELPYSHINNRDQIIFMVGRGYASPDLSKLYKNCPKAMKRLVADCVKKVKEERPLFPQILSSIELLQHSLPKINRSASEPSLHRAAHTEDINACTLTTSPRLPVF
As to the kind of experiment: RAF-1 ELISA phosphorylation assay (RAF-catalyzed phosphorylation of MEK and MAPK). To be noted: RAF-1 phosphorylation assay, lysates from RAS/RAF infected Sf9 cells, substrates T-MEK and His-MAPK. Type of experiment: biochemical. The source says: The following assay reports the amount of RAF-catalyzed phosphorylation of its target protein MEK as well as MEK's target MAPK. The RAF gene sequence is described in Bonner et al., 1985, Molec. Cell. Biol. 5: 1400-1407, and is readily accessible in multiple gene sequence data banks. Construction of the nucleic acid vector and cell lines utilized for this portion of the invention are fully described in Morrison et al., 1988, Proc. Natl. Acad. Sci. USA 85: 8855-8859.
• 1. Sf9 (Spodoptera frugiperda) cells; GIBCO-BRL, Gaithersburg, Md. • 2. RIPA buffer: 20 mM Tris/HCl pH 7.4, 137 mM NaCl, 10% glycerol, 1 mM PMSF, 5 mg/L Aprotenin, 0.5% Triton X-100; • 3. Thioredoxin-MEK fusion protein (T-MEK): T-MEK expression and purification by affinity chromatography were performed according to the manufacturer's procedures. Catalog#K 350-01 and R 350-40, Invitrogen Corp., San Diego, Calif. • 4. His-MAPK (ERK 2); His-tagged MAPK was expressed in XL1 Blue cells transformed with pUC18 vector encoding His-MAPK. His-MAPK was purified by Ni-affinity chromatography. Cat#27-4949-01, Pharmacia, Alameda, Calif., as described herein. • 5. Sheep anti mouse IgG: Jackson laboratories, West Grove, Pa. Catalog, #515-006-008, Lot#28563 • 6. RAF-1 protein kinase specific antibody: URP2653 from UBI. • 7. Coating buffer: PBS; phosphate buffered saline, GIBCO-BRL, Gaithersburg, Md. • 8. Wash buffer: TBST-50 mM Tris/HCL pH 7.2, 150 mM NaCl, 0.1% Triton X-100 • 9. Block buffer: TBST, 0.1% ethanolamine pH 7.4 • 10. DMSO, Sigma, St. Louis, Mo. • 11. Kinase buffer (KB): 20 mM Hepes/HC1 pH 7.2, 150 mM NaCl, 0.1% Triton X-100, 1 mM PMSF, 5 mg/L Aprotenin, 75 μM sodium ortho vanadate, 0.5 MM DTT and 10 mM MgCl2. • 12. ATP mix: 100 mM MgCl2, 300 μM ATP, 10 μCi γ-^33P ATP (Dupont-NEN)/mL. • 13 Stop solution: 1% phosphoric acid; Fisher, Pittsburgh, Pa. • 14. Wallac Cellulose Phosphate Filter mats; Wallac, Turku, Finnland. • 15. Filter wash solution: 1% phosphoric acid, Fisher, Pittsburgh, Pa. • 16. Tomtec plate harvester, Wallac, Turku, Finnland. • 17. Wallac beta plate reader #1205, Wallac, Turku, Finnland. • 18. NUNC 96-well V bottom polypropylene plates for compounds Applied Scientific Catalog #AS-72092. Procedure
All of the following steps were conducted at room temperature unless specifically indicated. • 1. ELISA plate coating: ELISA wells are coated with 100 μL of Sheep anti mouse affinity purified antiserum (1 μg/100 μL coating buffer) over night at 4° C. ELISA plates can be used for two weeks when stored at 4° C. • 2. Invert the plate and remove liquid. Add 100 μL of blocking solution and incubate for 30 min. • 3. Remove blocking solution and wash four times with wash buffer. Pat the plate on a paper towel to remove excess liquid. • 4. Add 1 μg of antibody specific for RAF-1 to each well and incubate for 1 hour. Wash as described in step 3. • 5. Thaw lysates from RAS/RAF infected Sf9 cells and dilute with TBST to 10 μg/100 μL. Add 10 μg of diluted lysate to the wells and incubate for 1 hour. Shake the plate during incubation. Negative controls receive no lysate. Lysates from RAS/RAF infected Sf9 insect cells are prepared after cells are infected with recombinant baculoviruses at a MOI of 5 for each virus, and harvested 48 hours later. The cells are washed once with PBS and lysed in RIPA buffer. Insoluble material is removed by centrifugation (5 min at 10,000×g). Aliquots of lysates are frozen in dry ice/ethanol and stored at −80° C. until use. • 6. Remove non-bound material and wash as outlined above (step 3). • 7. Add 2 μg of T-MEK and 2 μg of His-MAEPK per well and adjust the volume to 40 μL with kinase buffer. Methods for purifying T-MEK and MAPK from cell extracts are provided herein by example. • 8. Predilute compounds (stock solution 10 mg/mL DMSO) or extracts 20 fold in TBST plus 1% DMSO. Add 5 μL of the prediluted compounds/extracts to the wells described in step 6. Incubate for 20 min. Controls receive no drug. • 9. […]

For experiment [1], the system named is NIH-3T3 cells expressing RAF-1. As to the kind of experiment: Growth of NIH-3T3 cells expressing RAF-1. It is filed as cell-based. To be noted: Mus musculus, NIH3T3; growth of NIH-3T3 cells overexpressing RAF. An excerpt:
The following assay measures growth rates for NIH-3T3 cells expressing RAF-1. The protocol for the assay is described in detail in PCT Publication WO9640116, filed Jun. 5, 1996, by Tang et al., and entitled “Indolinone Compounds for the Treatment of Disease,” incorporated herein by reference in its entirety, including any drawings.

T1 sequence (P00533 25-1210): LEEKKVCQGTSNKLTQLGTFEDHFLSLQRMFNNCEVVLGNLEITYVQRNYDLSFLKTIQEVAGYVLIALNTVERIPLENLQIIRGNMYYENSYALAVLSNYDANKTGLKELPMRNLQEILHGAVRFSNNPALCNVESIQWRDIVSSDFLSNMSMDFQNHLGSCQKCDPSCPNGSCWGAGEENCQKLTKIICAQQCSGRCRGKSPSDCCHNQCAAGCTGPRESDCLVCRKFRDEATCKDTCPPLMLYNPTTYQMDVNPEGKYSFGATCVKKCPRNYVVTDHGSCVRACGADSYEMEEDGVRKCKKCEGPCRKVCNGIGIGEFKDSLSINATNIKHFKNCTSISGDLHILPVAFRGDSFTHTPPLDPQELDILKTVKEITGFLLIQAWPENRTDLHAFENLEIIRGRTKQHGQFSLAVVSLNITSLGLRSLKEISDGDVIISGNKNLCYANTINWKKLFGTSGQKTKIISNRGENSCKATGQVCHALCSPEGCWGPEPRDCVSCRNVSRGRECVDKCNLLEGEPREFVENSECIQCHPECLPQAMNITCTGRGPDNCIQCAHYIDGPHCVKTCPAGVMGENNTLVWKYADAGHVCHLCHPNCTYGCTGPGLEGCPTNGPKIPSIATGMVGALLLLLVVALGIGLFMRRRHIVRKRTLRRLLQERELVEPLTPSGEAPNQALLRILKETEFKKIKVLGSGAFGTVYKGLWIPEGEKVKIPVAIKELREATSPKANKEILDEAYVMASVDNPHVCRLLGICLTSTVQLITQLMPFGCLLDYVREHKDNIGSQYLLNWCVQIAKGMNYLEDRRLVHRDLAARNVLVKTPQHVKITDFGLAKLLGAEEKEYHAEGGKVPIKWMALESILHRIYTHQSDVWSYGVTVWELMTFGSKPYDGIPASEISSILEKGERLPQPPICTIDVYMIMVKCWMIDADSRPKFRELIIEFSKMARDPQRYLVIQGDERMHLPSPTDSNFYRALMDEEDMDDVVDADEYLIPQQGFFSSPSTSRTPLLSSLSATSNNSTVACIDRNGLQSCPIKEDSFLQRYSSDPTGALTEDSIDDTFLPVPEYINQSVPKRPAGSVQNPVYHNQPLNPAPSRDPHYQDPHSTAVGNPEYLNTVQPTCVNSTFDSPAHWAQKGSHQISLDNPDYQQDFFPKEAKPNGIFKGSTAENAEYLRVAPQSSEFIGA

For `Nc1nc(N)c2c(Oc3ccccc3)cccc2n1` [Compound A-1, 2,4-Diamino-5-phenoxyquinazoline], the IC50 (usually the concentration that inhibits the measured activity by half) at EGF Receptor is 24.6 µM; at RAF-1, 0.3 µM; in experiment [1] it was 0.16 µM.

Turning to `COc1ccc(Oc2cccc3nc(N)nc(N)c23)cc1` [Compound A-6, 2,4-Diamino-5-(4-methoxyphenoxy)quinazoline], the IC50 at EGF Receptor was more than 100 µM; on RAF-1, 0.8 µM.

Take `Nc1nc(N)c2c(Oc3ccc(F)cc3)cccc2n1` [Compound A-7, 2,4-Diamino-5-(4-fluorophenoxy)quinazoline]: the IC50 on EGF Receptor is more than 100 µM; against RAF-1 it was 5.8 µM; in experiment [1], 1.7 µM.

At RAF-1, `CC(C)(C)c1ccc(Oc2cccc3nc(N)nc(N)c23)cc1` [Compound A-8, 2,4-Diamino-5-(4-tert-butylphenoxy)quinazoline] came in with an IC50 of more than 100 µM.

In the case of `Cc1ccc(Oc2cccc3nc(N)nc(N)c23)cc1` [Compound A-9, 2,4-Diamino-5-(4-methylphenoxy)quinazoline], the values for the IC50 (against RAF-1; in experiment [1]) were 4.5 µM and 5.9 µM, respectively.

On to `COc1ccccc1Oc1cccc2nc(N)nc(N)c12` [Compound A-22, 2,4-Diamino-5-(2-methoxyphenoxy)quinazoline], for which the IC50 at EGF Receptor was more than 100 µM; against RAF-1 it was 20 µM.

Regarding `COc1cccc(Oc2cccc3nc(N)nc(N)c23)c1` [Compound A-23, 2,4-Diamino-5-(3-methoxyphenoxy)quinazoline], the IC50 at EGF Receptor stood at 17.2 µM; against RAF-1 it was 6.4 µM.

For `Nc1ncnc2cccc(Oc3ccc(OCc4ccccc4)cc3)c12` [Compound A-28, 4-Amino-5-(4-benzyloxyphenoxy)quinazoline], the IC50 at EGF Receptor worked out at 75.1 µM; on RAF-1, 0.3 µM.
